Data from article PMC7614683, “A small molecule PI3Kα activator for cardioprotection and neuroregeneration” (Nature, 2023).
Read-outs that look alike come from different tables or passages of the source.

Legend:
Test in all cases: SelectScreen Adapta
Type in all cases: biochemical
CDK7/cyclin H/MNAT1 = CDK7/cyclin H/MNAT1 (Homo sapiens, UniProt P50613)
Protocol: (§1) 133 protein kinases and 7 lipid kinases were counterscreened, with 1938 used at 1 μM, using the Adapta, Lantha and Z-LYTE assays (SelectScreen Kinase Profiling Service; Thermofisher – experimental details of these assays can be found here: https://www.thermofisher.com/uk/en/home/industrial/pharma-biopharma/drug-discovery-development/target-and-lead-identification-and-validation/kinasebiology/kinase-activity-assays.html. The tree represention in KinMap[59] generated courtesy of Cell Signaling Technology, Inc. (www.cellsignal.com). mTORC1 (mTOR/RAPTOR/LST8) protein complex and ATM kinase and substrates were produced as previously described[57],[60]. Screening of 1938 was conducted using SuperSep Phos-Tag 50 μmol/l 100 x 100 x 6.6 mm 17-well (192-18001/199-18011) gels. For ATM assays, 100 nM ATM was incubated for 30 min at 30°C with 5 μM GST-p53 and 1 mM ATP, in the absence or presence of 200 μM 1938 in ATM Kinase Buffer (50 mM HEPES pH 7.5, 100 mM NaCl, 10% glycerol, 2 mM […], 5 mM MgCl2). As a positive control for ATM activation, the same reaction was carried out with 100 nM ATM/5 μM GST-p53/1 mM ATP in the presence of 100 nM Mre11-Rad50-Nbs1 (MRN) complex, a known activator of ATM[61]. For mTORC1 assays, 50 nM mTORC1 complex (mTOR/LST8/RAPTOR) was incubated for 3 h at 30°C with 15 μM 4E-BP1, 10 mM MgCl2 and 250 μM ATP, in the absence or presence of 200 μM 1938. As a ‘positive’ control, a higher concentration (150 nM) of mTORC1 complex (mTOR/LST8/RAPTOR) was incubated for 3 h at 30°C with 15 μM 4E-BP1, 10 mM MgCl2 and 250 μM ATP. Kinase reactions were quenched by addition of SDS-PAGE Loading Buffer (as per manufacturer’s instructions) and freezing at -20°C before being run on the Phos-tag gels at 150 V for 90 min. Gels were then stained using InstantBlue™ Coomassie, and quantified using BioRad Image Lab Software. Kinase assays were carried out in triplicate.

CDK9/cyclin T1 = CDK9/cyclin T1 (Homo sapiens, UniProt P50750)
Protocol: as §1

GSG2 (Haspin) = target: T1, GSG2 (Haspin) (Homo sapiens, UniProt Q8TF76)
T1 sequence (Q8TF76 1-798): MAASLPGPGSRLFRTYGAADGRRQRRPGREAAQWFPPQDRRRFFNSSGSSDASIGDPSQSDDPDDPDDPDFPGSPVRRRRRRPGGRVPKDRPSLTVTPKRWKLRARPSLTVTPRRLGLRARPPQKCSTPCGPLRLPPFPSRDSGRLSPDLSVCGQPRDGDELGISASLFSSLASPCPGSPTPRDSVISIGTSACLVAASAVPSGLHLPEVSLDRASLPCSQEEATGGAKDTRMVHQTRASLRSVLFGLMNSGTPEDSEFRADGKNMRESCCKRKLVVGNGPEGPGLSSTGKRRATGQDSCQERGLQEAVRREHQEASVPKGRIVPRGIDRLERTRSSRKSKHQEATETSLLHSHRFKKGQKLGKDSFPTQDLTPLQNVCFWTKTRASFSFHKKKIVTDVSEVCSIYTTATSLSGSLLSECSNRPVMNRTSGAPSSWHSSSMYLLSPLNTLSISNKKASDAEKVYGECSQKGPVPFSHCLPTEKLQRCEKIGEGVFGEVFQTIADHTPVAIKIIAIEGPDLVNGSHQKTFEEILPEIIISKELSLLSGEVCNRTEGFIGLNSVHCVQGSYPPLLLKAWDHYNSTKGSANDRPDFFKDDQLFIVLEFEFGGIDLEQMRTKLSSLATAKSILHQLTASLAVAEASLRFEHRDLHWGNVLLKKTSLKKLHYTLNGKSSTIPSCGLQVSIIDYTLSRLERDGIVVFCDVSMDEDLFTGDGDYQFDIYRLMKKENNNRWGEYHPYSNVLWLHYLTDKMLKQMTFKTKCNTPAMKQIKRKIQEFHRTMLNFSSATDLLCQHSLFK
Protocol: as §1

LRRK2 = LRRK2 (Homo sapiens, UniProt Q5S007)
Protocol: as §1

PIK3C2A (PI3K-C2 alpha) = PIK3C2A (PI3K-C2 alpha) (Homo sapiens, UniProt O00443)
Protocol: as §1

[1] = target: PIK3CA/PIK3R1 (p110 alpha/p85 alpha) (Homo sapiens, UniProt P42336)
Protocol: as §1

[2] = target: PIK3CB/PIK3R1 (p110 beta/p85 alpha) (Homo sapiens, UniProt P42338)
Protocol: as §1

[3] = target: PIK3CD/PIK3R1 (p110 delta/p85 alpha) (Homo sapiens, UniProt O00329)
Protocol: as §1

PIK3CG (p110 gamma) = PIK3CG (p110 gamma) (Homo sapiens, UniProt P48736)
Protocol: as §1

PIK3CA/PIK3R1 (p110 alpha/p85 alpha), sequence (P42336 whole entry): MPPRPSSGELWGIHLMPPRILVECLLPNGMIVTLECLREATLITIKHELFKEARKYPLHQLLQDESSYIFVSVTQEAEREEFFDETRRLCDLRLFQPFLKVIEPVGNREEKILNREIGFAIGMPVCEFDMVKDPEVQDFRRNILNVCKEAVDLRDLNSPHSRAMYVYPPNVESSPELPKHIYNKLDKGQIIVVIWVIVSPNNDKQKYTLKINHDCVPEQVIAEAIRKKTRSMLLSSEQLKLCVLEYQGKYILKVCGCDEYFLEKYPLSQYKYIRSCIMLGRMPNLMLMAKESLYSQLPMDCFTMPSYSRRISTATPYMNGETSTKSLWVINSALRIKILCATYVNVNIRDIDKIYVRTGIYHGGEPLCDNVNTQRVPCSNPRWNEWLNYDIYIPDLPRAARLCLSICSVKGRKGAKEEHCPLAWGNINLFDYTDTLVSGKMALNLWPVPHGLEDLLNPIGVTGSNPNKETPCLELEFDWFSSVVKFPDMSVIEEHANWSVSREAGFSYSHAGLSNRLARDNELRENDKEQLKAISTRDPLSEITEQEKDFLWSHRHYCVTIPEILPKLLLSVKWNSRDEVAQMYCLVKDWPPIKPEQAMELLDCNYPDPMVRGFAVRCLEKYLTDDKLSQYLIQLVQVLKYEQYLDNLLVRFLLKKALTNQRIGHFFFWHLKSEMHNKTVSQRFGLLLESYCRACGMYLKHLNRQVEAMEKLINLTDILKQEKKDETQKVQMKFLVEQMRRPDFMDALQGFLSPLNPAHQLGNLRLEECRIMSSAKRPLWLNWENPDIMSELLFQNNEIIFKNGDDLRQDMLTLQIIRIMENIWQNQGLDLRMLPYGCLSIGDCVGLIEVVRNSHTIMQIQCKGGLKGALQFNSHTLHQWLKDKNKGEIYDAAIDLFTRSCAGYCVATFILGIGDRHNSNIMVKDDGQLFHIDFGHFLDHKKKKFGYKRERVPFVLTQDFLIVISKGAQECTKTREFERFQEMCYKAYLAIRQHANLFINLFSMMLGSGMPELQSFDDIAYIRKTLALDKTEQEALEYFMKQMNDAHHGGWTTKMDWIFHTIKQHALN
PIK3CA/PIK3R1 (p110 alpha/p85 alpha), sequence (P27986 whole entry partner): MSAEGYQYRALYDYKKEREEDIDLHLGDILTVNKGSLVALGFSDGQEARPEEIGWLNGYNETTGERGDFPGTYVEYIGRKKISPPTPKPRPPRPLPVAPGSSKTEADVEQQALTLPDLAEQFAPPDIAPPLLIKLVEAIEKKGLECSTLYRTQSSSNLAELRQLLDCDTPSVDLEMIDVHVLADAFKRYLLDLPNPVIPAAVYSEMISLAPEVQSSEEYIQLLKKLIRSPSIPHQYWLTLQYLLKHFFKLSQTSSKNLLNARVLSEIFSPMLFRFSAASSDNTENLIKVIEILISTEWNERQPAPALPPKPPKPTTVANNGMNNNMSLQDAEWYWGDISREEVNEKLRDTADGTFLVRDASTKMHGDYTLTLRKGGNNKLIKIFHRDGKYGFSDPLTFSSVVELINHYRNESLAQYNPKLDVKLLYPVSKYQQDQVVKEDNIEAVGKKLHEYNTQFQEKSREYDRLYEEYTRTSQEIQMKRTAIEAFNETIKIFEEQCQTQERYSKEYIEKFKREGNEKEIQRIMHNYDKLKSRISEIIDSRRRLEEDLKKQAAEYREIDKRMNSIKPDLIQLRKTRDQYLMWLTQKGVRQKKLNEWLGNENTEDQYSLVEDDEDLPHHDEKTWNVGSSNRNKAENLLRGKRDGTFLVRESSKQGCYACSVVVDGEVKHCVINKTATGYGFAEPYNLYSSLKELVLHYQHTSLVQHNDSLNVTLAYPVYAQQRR
LRRK2, sequence (Q5S007 whole entry): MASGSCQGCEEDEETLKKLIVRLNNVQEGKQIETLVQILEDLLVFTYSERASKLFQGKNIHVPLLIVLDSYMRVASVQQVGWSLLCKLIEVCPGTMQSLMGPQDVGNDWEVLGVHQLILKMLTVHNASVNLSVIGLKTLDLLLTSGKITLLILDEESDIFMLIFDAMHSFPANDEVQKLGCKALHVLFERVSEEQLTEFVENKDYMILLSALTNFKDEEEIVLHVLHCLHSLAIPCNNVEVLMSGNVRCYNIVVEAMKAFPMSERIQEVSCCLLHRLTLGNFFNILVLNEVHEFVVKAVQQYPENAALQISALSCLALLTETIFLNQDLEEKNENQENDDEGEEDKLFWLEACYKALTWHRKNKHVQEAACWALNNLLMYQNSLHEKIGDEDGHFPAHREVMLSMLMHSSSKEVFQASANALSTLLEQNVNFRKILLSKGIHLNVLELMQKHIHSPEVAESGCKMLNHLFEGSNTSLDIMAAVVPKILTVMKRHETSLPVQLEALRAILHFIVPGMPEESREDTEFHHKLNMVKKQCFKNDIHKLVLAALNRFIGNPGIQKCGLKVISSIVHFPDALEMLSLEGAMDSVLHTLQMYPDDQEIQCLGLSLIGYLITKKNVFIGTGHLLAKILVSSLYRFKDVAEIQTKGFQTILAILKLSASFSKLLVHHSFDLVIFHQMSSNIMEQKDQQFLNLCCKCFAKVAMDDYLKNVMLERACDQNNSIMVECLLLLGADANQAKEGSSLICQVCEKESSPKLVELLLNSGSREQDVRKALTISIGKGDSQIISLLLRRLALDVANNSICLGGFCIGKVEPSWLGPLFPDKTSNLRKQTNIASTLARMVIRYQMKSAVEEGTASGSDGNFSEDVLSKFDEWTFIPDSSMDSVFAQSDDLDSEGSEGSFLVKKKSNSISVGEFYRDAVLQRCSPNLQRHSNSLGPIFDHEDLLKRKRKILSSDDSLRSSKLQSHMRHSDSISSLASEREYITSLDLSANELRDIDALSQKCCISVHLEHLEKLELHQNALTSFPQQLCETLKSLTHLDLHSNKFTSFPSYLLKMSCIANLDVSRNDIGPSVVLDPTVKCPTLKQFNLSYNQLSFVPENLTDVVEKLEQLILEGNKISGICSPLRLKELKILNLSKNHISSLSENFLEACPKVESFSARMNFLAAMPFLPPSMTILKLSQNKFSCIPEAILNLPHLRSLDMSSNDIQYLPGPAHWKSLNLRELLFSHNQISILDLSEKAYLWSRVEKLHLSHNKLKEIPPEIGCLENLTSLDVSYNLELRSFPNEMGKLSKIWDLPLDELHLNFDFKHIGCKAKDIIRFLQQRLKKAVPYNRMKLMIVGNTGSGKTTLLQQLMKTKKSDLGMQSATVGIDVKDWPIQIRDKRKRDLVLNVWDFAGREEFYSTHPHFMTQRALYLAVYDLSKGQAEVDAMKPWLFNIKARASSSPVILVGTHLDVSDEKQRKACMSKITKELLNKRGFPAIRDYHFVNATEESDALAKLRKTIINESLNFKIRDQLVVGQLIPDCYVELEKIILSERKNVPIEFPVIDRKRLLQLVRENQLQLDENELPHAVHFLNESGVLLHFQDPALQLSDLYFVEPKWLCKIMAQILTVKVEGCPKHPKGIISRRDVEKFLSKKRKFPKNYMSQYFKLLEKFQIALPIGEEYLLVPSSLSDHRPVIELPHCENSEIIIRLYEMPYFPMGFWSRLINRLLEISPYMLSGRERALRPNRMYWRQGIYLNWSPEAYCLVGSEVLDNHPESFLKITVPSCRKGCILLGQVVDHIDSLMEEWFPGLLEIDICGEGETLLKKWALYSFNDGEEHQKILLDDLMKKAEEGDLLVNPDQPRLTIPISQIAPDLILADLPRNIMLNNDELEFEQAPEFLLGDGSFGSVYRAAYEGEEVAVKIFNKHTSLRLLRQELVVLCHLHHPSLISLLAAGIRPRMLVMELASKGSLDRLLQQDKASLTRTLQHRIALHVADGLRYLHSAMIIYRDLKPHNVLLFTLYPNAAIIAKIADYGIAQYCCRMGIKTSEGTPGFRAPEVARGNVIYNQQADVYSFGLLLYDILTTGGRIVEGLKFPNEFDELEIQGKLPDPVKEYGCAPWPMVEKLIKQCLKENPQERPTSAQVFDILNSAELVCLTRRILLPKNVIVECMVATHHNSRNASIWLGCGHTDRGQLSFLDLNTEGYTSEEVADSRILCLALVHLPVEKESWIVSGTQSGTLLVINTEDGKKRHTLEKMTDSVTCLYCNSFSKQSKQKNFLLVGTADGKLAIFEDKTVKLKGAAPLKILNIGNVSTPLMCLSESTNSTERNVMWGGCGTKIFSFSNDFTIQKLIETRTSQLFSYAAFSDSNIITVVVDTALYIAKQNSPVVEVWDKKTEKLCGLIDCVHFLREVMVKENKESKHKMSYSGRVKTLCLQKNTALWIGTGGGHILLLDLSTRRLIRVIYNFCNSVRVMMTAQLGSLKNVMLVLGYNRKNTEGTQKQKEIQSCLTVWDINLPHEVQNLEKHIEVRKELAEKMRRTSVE

`CCN1CCN(c2ccc(Nc3cc(Nc4cccc5c4N(C(C)=O)CC5)ccn3)cc2)CC1` [Compound 1938] gave an inhibition at 1 µM (CDK7/cyclin H/MNAT1; read-out: % Inhibition Point 1) of -6.51%, an inhibition at 1 µM (CDK7/cyclin H/MNAT1; read-out: % Inhibition Point 2) of 4% and an inhibition at 1 µM (CDK7/cyclin H/MNAT1; read-out: % Inhibition mean) of -1.27%. The inhibition at 1 µM (CDK9/cyclin T1; read-out: % Inhibition Point 1) was 10%, the inhibition at 1 µM (CDK9/cyclin T1; read-out: % Inhibition Point 2) was 2% and the inhibition at 1 µM (CDK9/cyclin T1; read-out: % Inhibition mean) was 6%. For the same molecule, the inhibition at 1 µM (GSG2 (Haspin); read-out: % Inhibition Point 1) was -18%, the inhibition at 1 µM (GSG2 (Haspin); read-out: % Inhibition Point 2) was 2.17% and the inhibition at 1 µM (GSG2 (Haspin); read-out: % Inhibition mean) was -8%. For the same molecule, the inhibition at 1 µM (LRRK2; read-out: % Inhibition Point 1) was 13%, the inhibition at 1 µM (LRRK2; read-out: % Inhibition Point 2) was 18% and the inhibition at 1 µM (LRRK2; read-out: % Inhibition mean) was 16%. For the same molecule, the inhibition at 1 µM (PIK3C2A (PI3K-C2 alpha); read-out: % Inhibition Point 1) was 2%, the inhibition at 1 µM (PIK3C2A (PI3K-C2 alpha); read-out: % Inhibition Point 2) was 3.23% and the inhibition at 1 µM (PIK3C2A (PI3K-C2 alpha); read-out: % Inhibition mean) was 2.57%. For the same molecule, the inhibition at 1 µM ([1]; read-out: % Inhibition Point 1) was -19%, the inhibition at 1 µM ([1]; read-out: % Inhibition Point 2) was -20% and the inhibition at 1 µM ([1]; read-out: % Inhibition mean) was -19%. The inhibition at 1 µM ([2]; read-out: % Inhibition Point 1) was 2.51%, the inhibition at 1 µM ([2]; read-out: % Inhibition Point 2) was 0.803% and the inhibition at 1 µM ([2]; read-out: % Inhibition mean) was 1.66%. The inhibition at 1 µM ([3]; read-out: % Inhibition Point 1) was 11%, the inhibition at 1 µM ([3]; read-out: % Inhibition Point 2) was -5% and the inhibition at 1 µM ([3]; read-out: % Inhibition mean) was 2.81%. For the same molecule, the inhibition at 1 µM (PIK3CG (p110 gamma); read-out: % Inhibition Point 1) was 4.3%, the inhibition at 1 µM (PIK3CG (p110 gamma); read-out: % Inhibition Point 2) was 13% and the inhibition at 1 µM (PIK3CG (p110 gamma); read-out: % Inhibition mean) was 8.53%.
